Key:
Test in all cases: relative viability (nuclei count vs DMSO), 5 days (fraction); higher = more cells survive
[1] = compound: CC1=CC=C(C=C1)C(=O)CN2C3=C(CCCC3)SC2=N [Pifithrin_alpha] + CC(=O)Nc1cccc(-n2c(=O)n(C3CC3)c(=O)c3c(Nc4ccc(I)cc4F)n(C)c(=O)c(C)c32)c1 [Trametinib] (partner 0.02 µM)
Method in brief: (§1)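 After 5 days of treatment, lung cancer cells in 1536-well plates were fixed and stained in a single step (final 0.05% Triton X-100, 1% formaldehyde, 1 ug/ml Hoechst) and their nuclei counted on 4× images. Treatment had been applied by pin tool the day after seeding as one drug alone or as a fixed anchor-drug dose with five library-drug doses (not always all listed) in √10 steps. Relative viability is the nuclei count of treated wells divided by that of vehicle wells, and values are medians of duplicate plates.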

[2] = compound: CC1=CC=C(C=C1)C(=O)CN2C3=C(CCCC3)SC2=N [Pifithrin_alpha] + Nc1nc2[nH]cc(CCc3ccc(C(=O)N[C@@H](CCC(=O)O)C(=O)O)cc3)c2c(=O)[nH]1 [Pemetrexed] (partner 0.2 µM)
Method in brief: as §1

Bemcentinib + Alpelisib = compound: Nc1nc(Nc2ccc3c(c2)CC[C@@H](N2CCCC2)CC3)nn1-c1cc2c(nn1)-c1ccccc1CCC2 [Bemcentinib] + Cc1nc(NC(=O)N2CCC[C@H]2C(N)=O)sc1-c1ccnc(C(C)(C)C(F)(F)F)c1 [Alpelisib] (partner 2 µM)
Method in brief: as §1

Bemcentinib + Decitabine = compound: Nc1nc(Nc2ccc3c(c2)CC[C@@H](N2CCCC2)CC3)nn1-c1cc2c(nn1)-c1ccccc1CCC2 [Bemcentinib] + Nc1ncn([C@H]2C[C@H](O)[C@@H](CO)O2)c(=O)n1 [Decitabine] (partner 2 µM)
Method in brief: as §1

Row | Cell Line | relative viability ([1]; first compound 1 µM) | relative viability ([1]; first compound 3.162 µM) | relative viability ([1]; first compound 10 µM) | relative viability ([1]; first compound 31.62 µM) | relative viability ([1]; first compound 100 µM) | relative viability ([2]; first compound 1 µM) | relative viability ([2]; first compound 3.162 µM) | relative viability ([2]; first compound 10 µM) | relative viability ([2]; first compound 31.62 µM) | relative viability ([2]; first compound 100 µM) | relative viability (Bemcentinib + Alpelisib; first compound 0.04 µM) | relative viability (Bemcentinib + Alpelisib; first compound 0.1265 µM) | relative viability (Bemcentinib + Alpelisib; first compound 0.4 µM) | relative viability (Bemcentinib + Alpelisib; first compound 1.265 µM) | relative viability (Bemcentinib + Alpelisib; first compound 4 µM) | relative viability (Bemcentinib + Decitabine; first compound 0.04 µM) | relative viability (Bemcentinib + Decitabine; first compound 0.1265 µM) | relative viability (Bemcentinib + Decitabine; first compound 0.4 µM) | relative viability (Bemcentinib + Decitabine; first compound 1.265 µM) | relative viability (Bemcentinib + Decitabine; first compound 4 µM)
1 | 201T | 0.752 | 0.616 | 0.61 | 0.529 | 0.518 | 0.315 | 0.337 | 0.296 | 0.29 | 0.295 | 1.01 | 0.987 | 1.03 | 1.08 | 1.04 | 0.827 | 0.903 | 0.893 | 0.979 | 0.868
2 | ChaGo-K-1 | 0.889 | 0.936 | 0.889 | 0.589 | 0.862 | 0.251 | 0.252 | 0.27 | 0.263 | 0.249 |  |  |  |  |  | 0.566 | 0.537 | 0.538 | 0.536 | 0.556
3 | Calu-6 |  |  |  |  |  |  |  |  |  |  | 0.928 | 1.04 | 1.01 | 1.04 | 1.07 |  |  |  |  | 
4 | EBC-1 |  |  |  |  |  |  |  |  |  |  | 0.843 | 0.863 | 0.825 | 0.849 | 0.76 |  |  |  |  | 
5 | CAL-12T | 0.295 | 0.331 | 0.274 |  | 0.268 | 1.31 | 1.29 | 1.1 |  | 1.19 | 1.19 | 1.51 | 1.37 | 1.31 | 1.16 |  |  |  |  | 
6 | NCI-H1650 | 0.563 | 0.523 | 0.451 | 0.375 | 0.39 | 0.358 | 0.366 | 0.341 | 0.331 | 0.392 |  |  |  |  |  | 0.428 | 0.416 | 0.389 | 0.517 | 0.417
7 | NCI-H2228 | 0.611 | 0.482 | 0.499 | 0.384 | 0.436 | 0.406 | 0.416 | 0.335 | 0.252 | 0.298 |  | 0.636 | 0.881 | 0.809 | 0.959 |  |  |  |  | 
8 | NCI-H727 | 0.374 | 0.403 | 0.388 | 0.409 | 0.361 |  |  |  |  |  | 0.528 | 0.576 | 0.492 | 0.491 | 0.621 | 0.832 | 0.932 | 0.807 | 0.717 | 0.891
9 | IA-LM |  |  |  |  |  |  |  |  |  |  | 0.749 | 0.807 | 0.748 | 0.652 | 0.78 |  |  |  |  | 
10 | NCI-H2342 | 0.856 | 0.734 | 0.811 | 0.772 | 0.843 | 0.628 | 0.741 | 0.729 | 0.855 | 0.782 |  |  |  |  |  | 0.746 | 0.768 | 0.771 | 0.73 | 0.827
11 | ABC-1 |  |  |  |  |  |  |  |  |  |  | 1.22 | 1.07 | 1.08 | 0.997 | 1.07 | 0.899 | 1.23 | 1.03 | 0.835 | 1.14
12 | SW 900 | 0.698 | 0.801 | 0.636 | 0.57 | 0.723 | 0.493 | 0.509 | 0.499 | 0.503 | 0.371 |  |  |  |  |  | 0.406 | 0.479 | 0.432 | 0.428 | 0.398
13 | A549 |  |  |  |  |  |  |  |  |  |  | 0.834 | 0.892 | 0.754 | 0.988 | 0.875 | 0.248 | 0.247 | 0.319 | 0.296 | 0.26

From the supplement of paper PMC10307832
